Test results: patent US6153434A, “Methods for the intracellular delivery of substances” (University of Florida, priority 1999, dated 2000)
Where two headings read alike, the source gives them in different places.

Experiments:
[1] = tested on: CHO cells; assay: Luciferase gene transfection (second set of experiments); format: cell-based, Chinese hamster
Description: (§1) When DNA transfection was carried out in serum free media, the DNA/liposome complexes usually incubated with cells for about 4-5 hours. […] Biophys. Acta 1111, 239-246). For gene transfection in growth media containing 10% FBS, the toxicity of complexes may be alleviated, and also the transfection may be inhibited by enzymes or slowed down by negatively charged macromolecules.
Biophys. Acta 1111, 239-246).

[2] = tested on: CHO cells; assay: Transfection efficiency assay (green fluorescence protein, pUF2 DNA); format: cell-based, Chinese hamster; conditions: optimal transfection ratio
Description: Transfection efficiency assay: The optimal weight ratio for transfection of each liposome was used. […] Complexes were incubated with CHO cells in serum free media for 4.5 hour then the media was changed to growth media and further incubated for 20 hours. Transfection efficiency was determined by counting the number of green fluorescence cells compared with all cells in the field of vision under (20 magnification using a Nikon Diaphot inverted microscope). Each transfection was done in triplicate and three separate counts were made for each well.

[3] = Aggregation of transfection complexes during transfection; format: physicochemical
Description: The lack of physical stability of liposome/DNA complexes affects the gene transfection activity (Caplen, N. J., E. Kinrade, F. Sorgi, X Gao, D. Gruenert, C. Couttelle, L. Huang, E. W . F. W. Alton, R. Williamson (1995) Gene Ther. 2:603). […] The interaction force between primary amino groups and DNA is not as strong as the interaction force of a quaternary amino group with DNA and is dependent on the local environment.
as §1

[4] = tested on: CHO and SKnSH cells; assay: Cytotoxicity of liposome/DNA complexes, both cell lines (FIG. 6); format: cell-based
Description: FIGS. 6A and 6B show the toxicity assays of cytotoxicity of the liposome/DNA complexes was studied in CHO and SKnSH cells. A fixed dose of 1 μg/well of pDNA was mixed with increasing amount of cationic liposomes and used in the toxicity assay. Cell viability was calculated as percentage of survival cells as stated in the Methods section. FIG. 6A: Toxicity in CHO cells. FIG. 6B: Toxicity in SKnSH cells. .diamond-solid.CHDTAEA/DOPE, .box-solid.CHSTAEA/DOPE; .tangle-solidup.DC-Chol/DOPE. Data is shown as mean (S. D. (n=3).
Toxicity Assay of CHDTAEA, CHSTAEA and DC-Chol: The toxicity of CHDTAEA/DOPE, CHSTAEA/DOPE and DC-Chol/DOPE in the CHO and SKnSH cell line was determined using a CARE-LASS (a calcein release assay). Before the assay, cells were plated in a 96 well plate (1(10^5 cells/well) and grown to 60-80% confluence overnight. To test the toxicity of the DNA/liposome complexes, a fixed amount of DNA (1 μg/well) was used to complex with increasing amount of liposomes. The ratios of DNA to liposome of different treatments were the same as the ratios used in transfection studies. The cytotoxicity of three liposomes were measured and expressed according to our previous procedure (Tang, F., J. A. Hughes (1998) Biochem Biophys Res Commun 242:141-145). Each experiment was performed in triplicate and repeated at least twice.

[5] = tested on: plasmid DNA; assay: Dissociation of DNA from DNA/liposome complexes by glutathione, agarose gel electrophoresis; format: physicochemical
Description: Dissociation of DNA from DNA/liposome complexes by glutathione: One μg of plasmid DNA was dissolved in 10 (L of phosphate-buffer saline (PBS). Cationic liposomes […] or CHSTAEA/DOPE were added to pDNA solution at the increasing weight ratios of 2/1, respectively. All calculations of the weight of liposomes in this paper were based on the weight of cationic lipids only. After the complexes were incubated for 30 minutes at room temperature, 10 (L of 20 mM of glutathione in PBS (pH=7.3) was added to the mixture to reach a final concentration of glutathione of 10 mM. The mixtures were incubated at 37° C. for 20 hours. Released DNA was visualized by 1% agarose gel electrophoresis.
DNA was complexed with a disulfide cationic liposome CHDTAEA/DOPE or its non-disulfide cationic liposome analog CHSTAEA/DOPE at the cationic lipid to DNA ratio of 2/1. […] In the presence of 10 mM of glutathione, >50% of DNA was released from complexes after the incubation. […] The complexes with the ratios of cationic liposome/DNA from 3/1 to 5/1 were also tested in the release assay with similar same results.

[6] = tested on: CHO cells; assay: Transfection of pGL3-luciferase plasmid; format: cell-based, Chinese hamster
Description: (§2) FIGS. 5A and 5B show a comparison of the transfection of pGL3-luciferase plasmid by CHDTAEA/DOPE, CHSTAEA/DOPE, and DC-Chol in CHO and SKnSH cells. A fixed dose 2 μg/well of pGL3 DNA was mixed with increasing weight ratios of cationic liposomes (calculation based on cationic lipid) and used for transfection. FIG. 5A: Transfection in CHO cells, FIG. 5B: Transfection in SKnSH cells. .diamond-solid.CHDTAEA/DOPE, .box-solid.CHSTAEA/DOPE; .tangle-solidup.DC-Chol/DOPE. Data is shown as mean (S. D. (n=3).
(§3) Cell culture and gene transfection using CHDTAEA and CHSTAEA: Chinese hamster ovary (CHO) and SKnSH cells were obtained from American Tissue Type Collection (Rockville, Md.). […] DNA/liposome complexes in 100 (L of serum free media were added to each well and incubated for 4.5 hours. After the 4.5-hour transfection time, the transfection media were changed to growth media and cells were incubated for another 24 hours. Luciferase activity was measured using a standard luciferase assay (Thierry, A. R., P. Rabinovich, B. Peng, L. C. Mahan, J. L. Bryant, R. C. Gallo (1997) Gene Ther 4:226-237). Luciferase activity in transfected cells was expressed as RLU per well. All conditions for transfection were strictly kept the same for each different kind of liposomes. Experiments were repeated at least twice, and experiments were done in triplicate within a given series.

[7] = tested on: SKnSH cells; assay: Transfection of pGL3-luciferase plasmid; format: cell-based
Description: as §2, §3

[8] = tested on: COS 1 cells and CHO cells; assay: Luciferase gene transfection (second set of experiments), COS 1 and CHO; format: cell-based; conditions: serum free media
Description: (§4) In another set of experiments COS 1 and Chinese hamster ovary (CHO) cells were maintained in DMEM (high glucose) and (-MEM) respectively, and supplemented with 10% fetal bovine serum (FBS) and antibiotics (penicillin 100 g/ml and streptomycin 100 μg/ml). All cells were kept in 5% CO2 and at 37° C. in humidified air. Cell lines were cultured and seeded in 24 well plates (2×10^5), and grown to 60-80% confluence in 1 ml of media with serum. DNA/lipid complexes were made and incubated at room temperature in serum free media for 5-10 minutes and used for transfection. Before transfection, growth media containing serum was changed to serum free media and for the experiment to test serum sensitivity, growth media were changed to fresh growth media and the transfection mixtures were added to the cells. After a certain period of time for the specific experiments, the media was changed to growth media containing serum, and the cells were grown for another 48 hours. Following transfection and incubation, cells were rinsed twice with phosphate buffer saline. 100 μL of luciferase lysis buffer (0.1 M potassium phosphate buffer pH 7.8, 2 mM EDTA, 1% Triton X-100, 1 mM DTT) was added to the cells. The cells were lysed with shaking at room temperature for 15 minutes. Luciferase activity was quantified by using a Monolight 2010 Luminometer. 100 µl of luciferase assay buffer (30 mM tricine, 3 mM ATP, 15 mM MgSO4, 10 mM DDT, pH=7.8) and 2 μL of cell lysate were added to a 100 l injection of 1 mM D-luciferin, pH=6.3 (Molecular Probes). The light emission over a 10 second reaction period was integrated. […] 2 l of cells lysate was used for luciferase assay. The total protein concentration in the supernatant was measured by the BCA protein assay reagent (Pierce, Rockford, Ill.). Luciferase activity in cultured cells was expressed as RLU per mg of protein. Each experiment was repeated at least twice, and within in a series, experiments were done in triplicate.
(§5) Comparison experiments were done by using a fixed amount of DNA (3 g/well). Transfection activity of six ratios of cationic lipid to DNA: 1/1, 2/1, 3/1, 4/1, 8/1, and 10/1 (w/w) were tested in COS 1 cells and CHO cells. […] Since serum was reported to decrease the transfection activity of some cationic liposomes, transfection was studied both in serum free media and growth media containing 10% of FBS.

[9] = tested on: COS 1 cells; assay: Luciferase gene transfection (second set of experiments)
Description: as §4, §5

[10] = tested on: 293 cells; assay: Luciferase gene transfection; format: cell-based
[11] = tested on: COS-1 cells; assay: Luciferase gene transfection; format: cell-based
[12] = tested on: SKnSH cells; assay: Luciferase gene transfection; format: cell-based
[13] = CHO cells, growth media containing 10% FBS
[14] = weight ratio 10/1 (charge ratio 6/1(+/-))
[15] = CHO, serum free, optimal ratio of each liposome

Structure (SMILES): CCCCCCCC/C=C\CCCCCCCC(=O)OCC(C[N+](C)(C)C)OC(=O)CCCCCCC/C=C\CCCCCCCC (centres unmarked) [DOTAP, 1,2-dioleoyl-3-trimethylammonium-propane, reference compound]
- transfection activity from 2 hours to 48 hours transfection time [1, 13]: not statistically different from 2 hours to 48 hours transfection time (p>0.1220)
- transgene expression efficiency (green fluorescence protein) [2]: 5-6%
- aggregation of transfection complexes ([3]; weight ratios of DOTAP to DNA bigger than 2:1): form large aggregates

Structure (SMILES): CC(C)CCC[C@@H](C)[C@H]1CC[C@H]2[C@@H]3CC=C4C[C@@H](OC(=O)NCCN(C)C)CC[C@]4(C)[C@H]3CC[C@]12C [DC-Chol, Cholesteryl N-(dimethylaminoethyl)carbamate, reference compound]
- cytotoxicity vs CHDTAEA ([4]; FIG. 6): much greater cytotoxicity

Structure (SMILES): CC(C)CCC[C@@H](C)[C@H]1CC[C@H]2[C@@H]3CC=C4C[C@@H](OC(=O)CCC(=O)NCCN(CCN)CCN)CC[C@]4(C)[C@H]3CC[C@]12C [CHSTAEA, Cholesteryl hemisuccinyl tris(aminoethyl)amine]
- release of DNA from complexes ([5]; in both reductive and non-reductive environments, 20 hours): did not release DNA at any conditions after incubation for 20 hours
- cytotoxicity vs CHDTAEA [4]: much greater cytotoxicity

Structure (SMILES): CC(C)CCC[C@@H](C)[C@H]1CC[C@H]2[C@@H]3CC=C4C[C@@H](OC(=O)CSSCC(=O)NCCN(CCN)CCN)CC[C@]4(C)[C@H]3CC[C@]12C [CHDTAEA, Cholesteryl hemidithiodiglycolyl tris(aminoethyl)amine]
- release of complexed DNA ([5]; presence of glutathione): released more than half of complexed DNA
- transfection activity vs non-disulfide analog CHSTAEA [6]: greater transfection activity than its non-disulfide analog CHSTAEA
- transfection activity vs non-disulfide analog CHSTAEA [7]: greater transfection activity than its non-disulfide analog CHSTAEA

Structure (SMILES): CCCCCCCC/C=C\CCCCCCCC(=O)OCC(COC(=O)CCC(=O)OCCCCCCOC(=O)[C@@H](N)CCCN)OC(=O)CCCCCCC/C=C\CCCCCCCC (some centres unmarked) [DOGSHDO, 1',2'-dioleyl-sn-glycero-3'-succinyl-1,6-hexanediol ornithine conjugate]
- gene expression with increasing amount of DNA/liposome ([1]; CHO): gene expression kept increasing
- transfection time of highest transfection activity [1, 13]: 12 h
- luciferase gene expression ([1]; CHO, 7 μg of DNA): 6.5E+07
- effect of further increase of liposome amount above 10/1 [8]: caused cytotoxicity and decreased the transfection activity
- optimal weight ratio of cationic lipid to DNA in transfection [8]: 10/1
- transgene expression efficiency (green fluorescence protein) [2]: 6-7%
- aggregation of transfection complexes [3, 14]: did not aggregate during transfection
- saturation of system ([9]; 7 μg of DNA, COS-1 cells): did not reach the saturation
- luciferase gene expression ([9]; COS 1, 7 g of pDNA): 3.84E+08
- transgene expression with increasing complexes ([9]; COS 1, lipid/DNA 10/1): increased with the increase of DNA/DOGSHDO complexes (p<0.0071) for the system did not reach saturation
- luciferase expression, 7 μg of DNA, vs 2 μg of DNA by DOGSDSO ([9]; COS-1 cells): only one third of that of 2 μg of DNA transferred by DOGSDSO liposome

Structure (SMILES): CCCCCCCC/C=C\CCCCCCCC(=O)OC[C@H](COC(=O)CCC(=O)OCCSSCCOC(=O)C(N)CCCN)OC(=O)CCCCCCC/C=C\CCCCCCCC (some centres unmarked) [DOGSDSO, 1',2'-dioleoyl-sn-glycero-3'-succinyl-2-hydroxyethyl disulfide ornithine conjugate]
- effect on transfection activity compared to DOGSHDO [10]: greater than 50 fold
- effect on transfection activity compared to DOGSHDO [11]: greater than 50 fold
- increase in transfection activity compared to DOGSHDO [12]: 4 fold
- gene expression on further increase of DNA to 7 μg ([1]; CHO): decrease of gene expression (p<0.0232)
- gene expression, 5 μg vs 6 μg of DNA ([1]; CHO): no significant difference of gene expression between the treatments of 5 μg of DNA and 6 μg of DNA (p>0.6528)
- luciferase gene expression, 5 μg of DNA, vs 7 μg of DNA by DOGSHDO ([1]; CHO): 14 times higher
- transfection time of highest transfection activity [1, 13]: 12 h
- luciferase gene expression ([1]; CHO, 5 μg of DNA): 9.03E+08
- optimal transfection activity, times higher than DOTAP or DOGSHDO ([1]; CHO, growth media with serum): 3 times
- transfection efficiency vs DOGSHDO ([1]; CHO, lipid/DNA 10/1): higher transfection efficiency
- transfection activity, times higher than DOGSHDO [1, 15]: 3 times
- transfection activity, times higher than DOTAP [1, 15]: 2 times
- amount of DNA at saturation of system ([1]; CHO, transferred by 50 μg of DOGSDSO): 5 µg
- effect of further increase of liposome amount above 10/1 [8]: caused cytotoxicity and decreased the transfection activity
- optimal weight ratio of cationic lipid to DNA in transfection [8]: 10/1
- transgene expression efficiency (green fluorescence protein) [2]: 20-25%
- aggregation of transfection complexes [3, 14]: did not aggregate during transfection
- transfection activity in the presence of serum ([9]; 10% FBS, COS-1 cells): equally active in the presence of 10% FBS
- luciferase gene expression, 2 g of pDNA, vs 7 g of pDNA with DOGSHDO ([9]; COS 1): 3 time higher
- luciferase gene expression ([9]; COS 1, 2 g of pDNA): 1.18E+09
- transfection activity in growth media vs serum free media ([9]; COS 1, 12 hours): comparable to transfection activity in serum free media
- transfection activity (luciferase) ([9]; COS 1, growth media (10% FBS), 12 hours): 5.9×10^8 RLU/mg protein
- highest transfection activity, times higher than DOGSHDO ([9]; COS 1, growth media with serum): 3 times
- highest transfection activity, times higher than DOTAP ([9]; COS 1, growth media with serum): 2 times
- amount of DNA at saturation of system ([9]; COS 1, lipid/DNA 10/1): 2 g
- transgene expression on increase of DNA from 2 g to 7 g ([9]; COS 1, lipid/DNA 10/1): no significant increase of transgene expression (p>0.2319)
- transfection activity, times higher than DOGSHDO ([9]; COS 1, serum free, optimal ratio of each liposome): 11 times
- transfection activity, times higher than DOTAP ([9]; COS 1, serum free, optimal ratio, DOTAP at 1:1): 6 times
- amount of DNA at saturation of system ([9]; COS-1 cells, optimal DNA/liposome ratio): 2e-06 g
- expression of luciferase at lipid/DNA ratios 1/1, 2/1, 3/1, 4/1 (w/w) ([9]; growth media with serum): not statistically different (p>0.2782)
